Measurements reported in publication PMC12114297 (Molecules, 2025).
Converted amounts (≈) assume the structure as drawn. Like-named read-outs stand apart in the source and are kept apart here.

Tests used:
[1] = tested on: Staphylococcus epidermidis ATCC 12228; test: Agar well diffusion, S. epidermidis; type: cell-based; details: ATCC12228, read-out: Staphylococcus epidermidis ATCC 12228 ZOI, 60 µL of 1 mg/mL per well, ZOI including the well (6 mm), ± SD, n = 3, ciprofloxacin disk 5 μg
Procedure: (§1) The antimicrobial potential of the synthesized coumarin–triazole–isatin hybrids was evaluated by the agar well diffusion method. The activity was tested against a variety of Gram-positive bacteria (Staphylococcus aureus ATCC 25923 and ATCC 902710, Staphylococcus epidermidis ATCC 12228, Streptococcus pyogenes ATCC 19615, Enterococcus faecalis ATCC 51299), Gram-negative bacteria (Escherichia coli ATCC 25922, Haemophilus influenzae ATCC 49766, Pseudomonas aeruginosa ATCC 27853, Salmonella typhi ATCC 14028, Neisseria meningitidis ATCC 13090, Neisseria gonorrhoeae ATCC 43069), and fungi (Candida albicans ATCC 60193 and ATCC 90028, Candida orientalis ATCC 6258). All microbial strains were obtained from Microbiologics (St.Cloud, MN, USA).
(§2) The test compounds were dissolved in DMSO to obtain stock solutions (1 mg/mL). Each compound (60 µL) was transferred into wells (6 mm in diameter) that were previously perforated into agar plates inoculated with microbial suspensions standardized to 0.5 McFarland for bacteria and 2 McFarland for Candida spp. DMSO was used as a negative control, while commercial antibiotic disks of novobiocin (5 μg), ampicillin (10 μg), and ciprofloxacin (5 μg) served as positive controls. Antimicrobial activity was assessed by measuring the diameter of zones of inhibition (ZOIs) in millimeters. All tests were conducted in triplicate.

[2] = tested on: Staphylococcus aureus ATCC 25923; test: Agar well diffusion, S. aureus; type: cell-based; details: for zone of inhibition at 1000 µg/mL: Staphylococcus aureus; for Antibacterial activity in words: agar well diffusion, particularly S. aureus
Procedure: as §1, §2

[3] = tested on: S. aureus ATCC 25923; test: MIC by agar dilution, S. aureus; type: cell-based; details: Staphylococcus aureus, ATCC25923, 0.39–200 μg/mL, read-out: MIC against S. aureus
[4] = tested on: S. epidermidis ATCC 12228; test: MIC by agar dilution, S. epidermidis; type: cell-based; details: Staphylococcus epidermidis, ATCC12228, 0.39–200 μg/mL, read-out: MIC against S. epidermidis
[5] = target: T1, BChE from equine serum (eqBuChE) (Equus caballus, UniProt P81908); test: biochemical; details: for inhibition at 20 µM: read-out: BChE % of Inhibition (Conc. 20 μM), 20 μM; for inhibition at 20 µM / IC50: average ± standard error (n = 3); for Selectivity BChE/AChE: ratio of AChE and BChE IC50
T1 construct: BChE from equine serum (BChE, EC 3.1.1.8); purchased Sigma-Aldrich (St. Louis, MO, USA); host or cells: equine serum
Procedure: The in vitro cholinesterase inhibitory activity of the synthesized hybrid molecules was evaluated using a modified Ellman’s assay, optimized for 96-well microplate application. AChE from Electrophorus electricus (AChE, EC 3.1.1.7), BChE from equine serum (BChE, EC 3.1.1.8), acetylthiocholine iodide (ATCh), butyrylthiocholine iodide (BTCh), and 5,5′-dithiobis(2-nitrobenzoic acid) were purchased from Sigma-Aldrich (St. Louis, MO, USA) and used without further purification.
Test compounds were initially dissolved in dimethylsulphoxide (DMSO) to yield 1 mM stock solutions and subsequently diluted with 0.1 M phosphate buffer (pH 8.0) to prepare working solutions.
For the assay, 20 µL of compound solution was added to 140 µL of 0.1 M phosphate buffer (pH 8.0) in each well, followed by 20 µL of enzyme solution (AChE or BuChE, 100 U/L). After incubation at room temperature for 10 min, the reaction was initiated by adding 10 µL of DTNB (0.01 M) and 10 µL of substrate (ATCh or BTCh, 0.015 M). […] The percentage inhibition of enzyme activity was calculated using the following equation:(1) % Inhibition=Absorbance of control−Apsorbance of sample/Absorbance of control×100 where the absorbance of the control represents the maximum enzyme activity (without inhibition), and the absorbance of the sample corresponds to the enzyme activity in the presence of the tested compound. Appropriate blanks were included to account for background absorbance and to correct for any intrinsic color of the tested compounds.
All experiments were performed in triplicate.

[6] = target: T2, AChE from Electrophorus electricus (eeAChE) (Electrophorus electricus, UniProt O42275); test: biochemical; details: for inhibition at 20 µM: read-out: AChE % of Inhibition (Conc. 20 μM); for IC50: average ± standard error (n = 3)
T2 construct: purchased Sigma-Aldrich (St. Louis, MO, USA)

[7] = target: T3, BChE (Equus caballus, UniProt P81908); test: Type of enzyme inhibition, Lineweaver–Burk plot; type: biochemical, equine
T3 construct: BChE from equine serum (BChE, EC 3.1.1.8); purchased Sigma-Aldrich (St. Louis, MO, USA); host or cells: equine serum
Procedure: The concentrations of substrate and inhibitor used in the assay are given in Section 3.3.1.
The type of enzyme inhibition was assessed using Lineweaver–Burk plots, which represent a linear transformation of the Michaelis–Menten equation. This method enables visual classification of inhibition type by plotting the reciprocal of the initial reaction velocity (1/Vo) against the reciprocal of the substrate concentration (1/[S]).
The intersection pattern of the fitted lines was used to identify the inhibition mechanism. All tests were replicated three times.

[8] = ATCC25923, 60 µL of 1 mg/mL per well, ZOI including the well (6 mm), ± SD, n = 3, ciprofloxacin disk 5 μg, read-out: Staphylococcus aureus ATCC 25923 ZOI

T3 sequence (P81908 whole entry): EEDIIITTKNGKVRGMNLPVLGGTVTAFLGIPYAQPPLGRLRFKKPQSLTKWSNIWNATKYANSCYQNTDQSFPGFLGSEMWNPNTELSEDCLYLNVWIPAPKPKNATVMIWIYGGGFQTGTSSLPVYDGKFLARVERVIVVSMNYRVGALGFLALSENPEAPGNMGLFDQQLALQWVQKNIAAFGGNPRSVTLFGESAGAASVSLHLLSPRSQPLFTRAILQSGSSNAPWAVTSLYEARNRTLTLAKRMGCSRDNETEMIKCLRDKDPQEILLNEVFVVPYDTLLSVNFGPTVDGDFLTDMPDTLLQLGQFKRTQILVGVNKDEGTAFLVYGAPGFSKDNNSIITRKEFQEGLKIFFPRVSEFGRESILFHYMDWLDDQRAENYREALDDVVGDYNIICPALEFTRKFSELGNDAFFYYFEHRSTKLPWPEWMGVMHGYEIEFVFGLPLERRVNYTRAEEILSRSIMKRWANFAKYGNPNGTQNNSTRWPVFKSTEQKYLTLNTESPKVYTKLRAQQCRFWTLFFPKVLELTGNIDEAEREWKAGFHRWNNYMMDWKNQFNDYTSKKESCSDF
T1 sequence (P81908 whole entry): as above
T2 sequence (O42275 24-633): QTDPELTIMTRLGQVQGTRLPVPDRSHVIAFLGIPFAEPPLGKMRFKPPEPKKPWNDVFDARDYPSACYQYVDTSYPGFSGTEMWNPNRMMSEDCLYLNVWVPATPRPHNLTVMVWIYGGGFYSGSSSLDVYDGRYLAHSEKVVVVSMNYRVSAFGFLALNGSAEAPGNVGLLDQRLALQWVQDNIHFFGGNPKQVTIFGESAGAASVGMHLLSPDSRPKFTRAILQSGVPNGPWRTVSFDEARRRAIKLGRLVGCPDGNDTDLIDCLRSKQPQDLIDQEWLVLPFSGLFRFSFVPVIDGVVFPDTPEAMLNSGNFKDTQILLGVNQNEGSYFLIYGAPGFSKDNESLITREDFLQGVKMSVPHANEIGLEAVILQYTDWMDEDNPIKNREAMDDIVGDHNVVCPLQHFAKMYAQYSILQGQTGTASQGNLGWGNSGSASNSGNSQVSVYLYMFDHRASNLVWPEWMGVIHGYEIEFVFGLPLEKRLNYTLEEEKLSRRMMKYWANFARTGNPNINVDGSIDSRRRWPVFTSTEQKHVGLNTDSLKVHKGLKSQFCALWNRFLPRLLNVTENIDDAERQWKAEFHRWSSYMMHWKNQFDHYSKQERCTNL

SMILES | zone of inhibition at 1000 µg/mL [1] [mm] | Staphylococcus aureus ATCC 25923 ZOI ([2]; 60 µL of 1 mg/mL per well, ZOI including the well (6 mm), ± SD, n = 3, ciprofloxacin disk 5 μg) [mm] | zone of inhibition at 1000 µg/mL [2, 8] [mm] | MIC [3] [µg/mL] | MIC [4] [µg/mL] | inhibition at 20 µM [5] [%] | Antibacterial activity in words [2] | inhibition at 20 µM [6] [%] | IC50 [5] [µM] | zone of inhibition at 1000 µg/mL ([2]; ATCC25923, read-out: Staphylococcus aureus ATCC 25923 ZOI, 60 µL of 1 mg/mL per well, ZOI including the well (6 mm), ± SD, n = 3, ciprofloxacin disk 5 μg) [mm] | α value (affinity constant) ([7]; from Lineweaver–Burk plot) | Type of inhibition ([7]; substrate 1–8 mM, inhibitor 4, 8, 12 μM) | Selectivity BChE/AChE [5] | IC50 [6] [µM]
O=C(O)c1cn(C2CC2)c2cc(N3CCNCC3)c(F)cc2c1=O [Ciprofloxacine, ciprofloxacin, reference compound] | 5.24 ± 1.16 | 27.00 ± 1.62 | 27 | 0.78 (≈ 2.35 µM) | 0.78 (≈ 2.35 µM) | – | – | – | – | – | – | – | – | –
O=C1C(=O)N(Cc2cn(CCOc3cc(=O)oc4ccccc34)nn2)c2ccc(Br)cc21 [Compound 6a4, 5-bromo-1-((1-(2-((2-oxo-2H-chromen-4-yl)oxy)ethyl)-1H-1,2,3-triazol-4-yl)methyl)indoline-2,3-dione] | – | – | 12 to 20 | 12.5 (≈ 25.2 µM) | – | 22.7 ± 3.87 | showed activity | 4.57 ± 0.87 | – | – | – | – | – | –
O=C1C(=O)N(Cc2cn(CCCOc3cc(=O)oc4ccccc34)nn2)c2ccc(Br)cc21 [Compound 6b4, 5-bromo-1-((1-(3-((2-oxo-2H-chromen-4-yl)oxy)propyl)-1H-1,2,3-triazol-4-yl)methyl)indoline-2,3-dione] | 14 | – | – | 6.25 (≈ 12.3 µM) | 25 (≈ 49.1 µM) | 66.2 ± 8.11 | moderate antibacterial effects | 22.9 ± 2.11 | 13.3 ± 2.19 | 20 | – | – | – | –
O=C1C(=O)N(Cc2cn(CCCCOc3cc(=O)oc4ccccc34)nn2)c2ccccc21 [Compound 6c1, 1-((1-(4-((2-oxo-2H-chromen-4-yl)oxy)butyl)-1H-1,2,3-triazol-4-yl)methyl)indoline-2,3-dione] | 1.74 ± 0.29 | – | 8.67 ± 1.15 | – | – | 84.5 ± 8.46 | only weak antibacterial activity | 67.1 ± 3.27 | 1.74 ± 0.29 | – | greater than 1 | mixed-type inhibition | 8.78 | 15.3 ± 1.22
O=C1C(=O)N(Cc2cn(CCCCOc3cc(=O)oc4ccccc34)nn2)c2ccc(F)cc21 [Compound 6c2, 5-fluoro-1-((1-(4-((2-oxo-2H-chromen-4-yl)oxy)butyl)-1H-1,2,3-triazol-4-yl)methyl)indoline-2,3-dione] | 5.51 ± 1.38 | – | 12 ± 2.65 | – | – | 79.1 ± 5.49 | only weak antibacterial activity | 61 ± 3.49 | 5.51 ± 1.38 | – | – | – | 3.11 | 17.1 ± 1.65
